The results in this text go back to US20220144823A1, “PYRAZOLOPYRIDINE DERIVATIVES AS INHIBITORS OF PASK” (Galapagos NV, priority 2019, published 2022).

Assay [1] has as its target T1, human PASK (Homo sapiens, UniProt Q96RG2).
T1 construct: purchased ThermoFisher Scientific PR7013A
Nature of the assay: ADP-Glo kinase assay. The settings on record: ADPGlo PASK kinase assay, 25 μM ATP, ZIPtide 25 μM. In kind it is biochemical. On the procedure: The ADP-Glo™ kinase assay is a luminescent technology assay which measures the ADP formed from a kinase reaction. In this specific study, the kinase reactions consisted of the phosphorylation of the ZIPtide peptide substrate by human recombinant PASK. In a second step the kinase reaction is terminated and all the remaining ATP is depleted. In a final step the ADP is converted into ATP and this newly synthesized ATP is measured by using a luciferase/luciferin reaction. The generated light is measured using an Envision plate reader, wherein the luminescent signal obtained positively correlates with the kinase activity.
The test compounds are prepared as a serial dilution of 10 point dose responses with 1/5 dilution steps in 100% DMSO starting from 2 mM highest concentration, diluted 1/20 in water and 1 μL is transferred to the assay plates (PerkinElmer Inc., Cat #6007290).
(§1) 1% DMSO and 10 μM staurosporine final concentrations are used respectively as negative and positive controls.
2 μL enzyme-substrate mixture is added to the assay plates.
The reaction is started by adding 2 μL diluted ATP on the assay plates immediately after addition of the enzyme-substrate mixture to the compound. Plates are centrifuged for a few seconds at 1000 rpm and gently shaken for 2 min followed by an incubation at RT for 120 min.
The reactions are stopped and the unconsumed ATP is depleted by adding 5 μL ADP-Glo Reagent (Promega, Cat #V912B) to the reaction. The plates are centrifuged for a few seconds at 1000 rpm and incubated at RT for 40 min (ATP depletion).
The ADP is converted to ATP and luciferase and luciferin is introduced to detect ATP by adding 10 μL Kinase Detection Reagent (Promega, Cat #V913B+V914B) to the reaction. The plates are centrifuged for a few seconds at 1000 rpm and incubated at RT for 30 min (ADP detection).
Luminescence is measured on an Envision plate reader (PerkinElmer Inc.).
Raw data are generated following the read-out performed on the Envision plate reader, used to calculate percentage inhibition (PIN) values and plotted to generate dose response curves and derive the average half maximal inhibitory concentrations (IC50) reported in Table VIII.

For assay [2], the target named is T2, autophosphorylation of PASK at position Thr307 in Hek293 cells overexpressing PASK (Homo sapiens, UniProt Q96RG2).
T2 construct: expressed in transfected cells; host or cells: Hek293
T2 sequence (Q96RG2 with tags, fused parts or gaps): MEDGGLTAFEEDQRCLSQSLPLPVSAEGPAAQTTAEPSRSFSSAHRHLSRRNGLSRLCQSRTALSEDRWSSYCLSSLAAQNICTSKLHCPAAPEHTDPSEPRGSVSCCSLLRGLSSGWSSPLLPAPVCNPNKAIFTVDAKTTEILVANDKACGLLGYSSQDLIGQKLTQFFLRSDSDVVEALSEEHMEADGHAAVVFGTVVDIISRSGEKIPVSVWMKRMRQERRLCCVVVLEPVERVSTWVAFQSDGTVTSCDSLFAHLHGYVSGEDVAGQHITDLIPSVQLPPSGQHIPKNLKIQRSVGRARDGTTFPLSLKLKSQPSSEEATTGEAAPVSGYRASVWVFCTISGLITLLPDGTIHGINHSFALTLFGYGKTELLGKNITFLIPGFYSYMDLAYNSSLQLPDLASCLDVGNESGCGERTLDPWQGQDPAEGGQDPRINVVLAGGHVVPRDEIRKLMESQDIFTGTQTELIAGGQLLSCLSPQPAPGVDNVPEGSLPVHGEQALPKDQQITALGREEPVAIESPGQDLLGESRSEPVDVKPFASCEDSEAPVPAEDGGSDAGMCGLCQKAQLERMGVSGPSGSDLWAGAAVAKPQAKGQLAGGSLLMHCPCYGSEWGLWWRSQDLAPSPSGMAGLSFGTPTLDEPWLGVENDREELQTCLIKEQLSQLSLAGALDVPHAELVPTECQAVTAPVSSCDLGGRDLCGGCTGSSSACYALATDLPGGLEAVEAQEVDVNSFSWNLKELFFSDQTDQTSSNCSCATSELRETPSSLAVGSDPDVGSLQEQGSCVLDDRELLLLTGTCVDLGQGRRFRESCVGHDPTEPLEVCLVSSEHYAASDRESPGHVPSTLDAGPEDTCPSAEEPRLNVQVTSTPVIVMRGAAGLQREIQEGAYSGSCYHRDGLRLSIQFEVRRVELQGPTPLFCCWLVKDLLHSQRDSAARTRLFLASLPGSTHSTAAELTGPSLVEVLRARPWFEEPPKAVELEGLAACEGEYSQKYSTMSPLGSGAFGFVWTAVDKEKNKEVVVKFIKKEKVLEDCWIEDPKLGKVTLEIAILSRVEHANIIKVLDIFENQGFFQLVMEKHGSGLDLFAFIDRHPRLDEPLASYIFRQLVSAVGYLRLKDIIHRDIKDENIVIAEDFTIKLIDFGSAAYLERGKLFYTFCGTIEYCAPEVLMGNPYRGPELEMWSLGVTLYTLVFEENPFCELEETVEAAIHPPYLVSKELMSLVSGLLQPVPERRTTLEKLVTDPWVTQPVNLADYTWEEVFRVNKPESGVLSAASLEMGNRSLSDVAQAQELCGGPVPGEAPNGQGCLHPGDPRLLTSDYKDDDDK
Nature of the assay: PASK autophosphorylation ELISA assay. As to conditions: 24 h, ELISA readout. It counts as cell-based. On the procedure:
The compounds of the invention are profiled in a cellular assay to determine their capacity to reduce the autophosphorylation levels of PASK at position Thr307 in Hek293 cells overexpressing PASK, using an ELISA-based readout.
At day 1, a 96-well cell assay plate is coated with poly-D-lysine (50 μL/well of a 0.05 mg/mL solution in PBS) and incubated for 1 h at 37° C. The plate is subsequently washed once with PBS and stored dry at RT until further use. Hek293 cells are transfected with a pcDNA3.1-PASK(FL,WT)-FLAG construct (SEQ ID1) and seeded in culture medium (DMEM+10% FBS) in a poly-D-lysine coated 96-well plate (0.3 μL JetPEI DNA transfection reagent (Polyplus-transfection SA, Cat #101-40), 10 ng construct and 90 ng pBluescript, 60000 cells per well). […] The cell plate is incubated overnight at 37° C., 5% CO2.
At day 2, the medium of the assay plate is removed and 100 μL of fresh medium (DMEM+10% FBS) is added to the plate. Cell plate is further incubated overnight at 37° C., 5% CO2. This to allow further expression of PASK protein.
At day 3, the medium is removed and replaced with 100 μL of serum free medium (DMEM). Test compound is added to the plate (8 points concentration curve with 1/3 dilution steps starting from 30 μM final concentration in 0.3% DMSO final). In the positive and negative control wells of the plate, 0.3% DMSO final is added. For each tested condition, duplicates are made for ELISA readout. Cell plate is incubated 24 h at 37° C., 5% CO2.
At day 4, the medium is removed and the plate is washed once with 100 μL/well PBS. Cells are lysed by adding 50 μL/well western blot lysis buffer (20 mM Tris pH 7.5, 150 mM NaCl and 1% Triton) to the plate. The assay plate is stored at −80° C. and thawed to perform the ELISA readout.
At day 1, the ELISA plate is coated with the mouse anti-FLAG antibody (2 μg/mL diluted in PBS, 100 μL/well) and incubated overnight at 4° C.
At day 2, the plate is washed once with 150 μL/well PBS. 200 μL/well blocking buffer (PBS with 3% BSA) is added and the plate is incubated for 4 h at RT. The plate is washed with 150 μL/well high salt washing buffer (20 mM Na2HPO4, 0.5% Triton X-100, 0.1% SDS, 0.1% BSA and 1 M NaCl) followed by one wash with 150 μL/well low salt washing buffer (20 mM Na2HPO4, 0.5% Triton X-100, 0.1% SDS, 0.1% BSA and 150 mM NaCl). Meanwhile, the cell lysate plate is thawed, two wells of the same condition are pooled (2×50 μL) and added to the ELISA plate. The ELISA plate is incubated overnight at 4° C.
At day 3, the ELISA plate is washed twice with 150 μL/well high salt washing buffer followed by two washes with low salt washing buffer. 100 μL/well detection antibody for pPASK (phospho-Akt substrate (RXXS*/T*) (110B7E) rabbit antibody (Cell Signaling Technology, Inc., Cat #9614) 2 μg/mL diluted in PBS with 3% BSA and 1×Halt™ protease and phosphatase inhibitor cocktail (Thermo Fisher Scientific, Inc., Cat #78447)) is added and incubated for 2 h at RT. The plate is washed twice with high and low salt wash buffer (150 μL/well) and 100 μL/well of an HRP antibody (swine anti-rabbit HRP antibody (Agilent Technologies, Inc., Cat #P039901) diluted 1/2000 in PBS with 3% BSA and 1×Halt™ protease and phosphatase inhibitor cocktail) is added to the plate, followed by an incubation for 1 h at RT in the dark (plate sealed with aluminum seal). The plate is washed twice with high and low salt wash buffer (150 μL/well) and 100 μL/well of SuperSignal™ ELISA Pico Chemiluminescent Substrate (Thermo Fisher Scientific, Inc., Cat #37070)(premix part 1 and part 2, 1/1) is added. The plate is incubated for 4 min at RT before measuring luminescence on the Luminoskan™ Ascent (Thermo Fisher Scientific, Inc.) (PMT default voltage; 100 ms integration time). […]
For orientation: In an ELISA, binding on a coated surface is turned into a signal by an enzyme label.

Assay [3] addresses T1, human PASK. Nature of the assay: 33P radioactive kinase assay. It counts as biochemical. As to conditions: 33P radioactive PASK kinase assay, 10 μM ATP, ZIPtide 1 μM. The protocol:
The principle of the ^33P radioactive kinase assay consists in measuring the incorporated ^33P into the ZIPtide peptide substrate when phosphorylated by human PASK using [^33P]-[…]-ATP and ATP, which correlates with kinase activity.
The test compounds are prepared as a serial dilution of 10 point dose responses with 1/5 dilution steps in 100% DMSO starting from 0.2 or 2 mM highest concentration, diluted 1/20 in water and 5 μL is transferred to the assay plates (Greiner, Cat #651201).
as §1
11 μL of enzyme-substrate mixture is added on the assay plates. The reactions are started by adding 9 μL ATP mixture, consisting of non-labeled and ^33P-labeled ATP, on the assay plates.
The reactions are stopped by adding 25 μL phosphoric acid (150 mM) to the reactions.
The completely terminated kinase reactions are transferred using a harvester on pre-wetted UniFilter-96 plates (UniFilter-96 GF/B, PerkinElmer Inc., Cat #6005177).
After harvesting the kinase reactions, the filter plates are washed 6 times with phosphoric acid (75 mM). The back of the UniFilter-96 plates are sealed and 40 μL MicroScint-20 (PerkinElmer Inc., Cat #6013621) is added to each well. The top of each plate is sealed with TopSeal-A (PerkinElmer Inc., Cat #6050185). Read-out is performed with a TopCount instrument (PerkinElmer Inc.).
Raw data are generated following the read-out performed on the TopCount, used to calculate percentage inhibition (PIN) values and plotted to generate dose response curves and derive the average half maximal inhibitory concentrations (IC50) reported in Table VI.

T1 sequence (Q96RG2 whole entry): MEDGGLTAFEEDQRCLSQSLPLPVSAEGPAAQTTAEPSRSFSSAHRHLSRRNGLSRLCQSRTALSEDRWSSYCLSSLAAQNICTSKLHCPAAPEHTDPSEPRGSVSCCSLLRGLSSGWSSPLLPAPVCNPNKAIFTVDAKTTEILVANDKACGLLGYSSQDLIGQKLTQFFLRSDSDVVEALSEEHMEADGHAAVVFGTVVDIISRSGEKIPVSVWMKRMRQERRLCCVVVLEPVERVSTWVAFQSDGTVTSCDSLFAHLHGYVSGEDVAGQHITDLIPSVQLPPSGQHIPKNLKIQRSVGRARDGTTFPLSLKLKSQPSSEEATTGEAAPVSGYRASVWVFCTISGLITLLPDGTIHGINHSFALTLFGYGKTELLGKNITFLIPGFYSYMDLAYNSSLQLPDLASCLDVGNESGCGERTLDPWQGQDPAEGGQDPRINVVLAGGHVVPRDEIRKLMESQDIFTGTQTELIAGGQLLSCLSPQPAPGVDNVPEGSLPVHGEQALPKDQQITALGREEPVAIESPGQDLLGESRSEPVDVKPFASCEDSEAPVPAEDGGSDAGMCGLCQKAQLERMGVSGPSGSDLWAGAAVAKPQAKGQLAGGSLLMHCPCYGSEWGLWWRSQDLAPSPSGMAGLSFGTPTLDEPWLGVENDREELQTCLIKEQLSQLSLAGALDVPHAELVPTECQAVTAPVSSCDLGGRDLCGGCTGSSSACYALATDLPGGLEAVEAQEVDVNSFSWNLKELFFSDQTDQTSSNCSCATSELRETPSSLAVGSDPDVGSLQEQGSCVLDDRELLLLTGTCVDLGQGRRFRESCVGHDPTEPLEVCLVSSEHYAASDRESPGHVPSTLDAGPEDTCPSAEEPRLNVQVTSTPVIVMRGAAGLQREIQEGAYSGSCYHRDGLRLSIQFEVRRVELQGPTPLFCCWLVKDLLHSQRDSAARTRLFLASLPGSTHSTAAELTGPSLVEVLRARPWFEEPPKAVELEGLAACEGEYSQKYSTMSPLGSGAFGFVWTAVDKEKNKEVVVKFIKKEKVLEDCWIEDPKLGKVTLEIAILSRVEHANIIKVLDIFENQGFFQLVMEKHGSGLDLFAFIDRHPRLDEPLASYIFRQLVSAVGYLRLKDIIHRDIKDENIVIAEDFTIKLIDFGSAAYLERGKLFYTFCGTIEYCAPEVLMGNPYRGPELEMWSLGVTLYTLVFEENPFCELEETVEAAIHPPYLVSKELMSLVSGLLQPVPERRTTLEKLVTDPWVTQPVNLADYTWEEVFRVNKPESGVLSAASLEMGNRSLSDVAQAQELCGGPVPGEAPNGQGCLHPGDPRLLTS

For the compound `CCOc1nc(-c2ccn3ncc(-c4c(C)nn(C(F)F)c4C)c3c2)sc1C(=O)O` [Cpd 72, 2-[3-[1-(difluoromethyl)-3,5-dimethyl-pyrazol-4-yl]pyrazolo[1,5-a]pyridin-5-yl]-4-ethoxy-thiazole-5-carboxylic acid], the IC50 in assay [1] fell in the range of 0.01 to 10 nM; in assay [2] it was 1000 to 5000 nM.

As to `Cc1nn(C(F)F)c(C)c1-c1cnn2ccc(-c3ncc(C(=O)O)s3)cc12` [Cpd 50, 2-[3-[1-(difluoromethyl)-3,5-dimethyl-pyrazol-4-yl]pyrazolo[1,5-a]pyridin-5-yl]thiazole-5-carboxylic acid], the IC50 in assay [1] was 0.01 to 10 nM; in assay [2] it was more than 5000 nM.

Take `Cc1nn(C)c(C)c1-c1cnn2ccc(-c3nc(C4CC4)c(C(=O)O)s3)cc12` [Cpd 86, 4-cyclopropyl-2-[3-(1,3,5-trimethylpyrazol-4-yl)pyrazolo[1,5-a]pyridin-5-yl]thiazole-5-carboxylic acid]: the IC50 in assay [1] lay in the range of 0.01 to 10 nM; in assay [2] it was 0.1 to 500 nM.

For `COc1nn(-c2ccn3ncc(-c4c(C)nn(CC(F)(F)F)c4C)c3c2)cc1C(=O)O` [Cpd 68, 1-[3-[3,5-dimethyl-1-(2,2,2-trifluoroethyl)pyrazol-4-yl]pyrazolo[1,5-a]pyridin-5-yl]-3-methoxy-pyrazole-4-carboxylic acid], the results for the IC50 in assay [1] and in assay [2] were 0.01 to 10 nM and more than 5000 nM, respectively.

For `COc1nc(-c2ccn3ncc(-c4c(C)nn(C(F)F)c4C)c3c2)sc1C(=O)O` [Cpd 79, 2-[3-[1-(difluoromethyl)-3,5-dimethyl-pyrazol-4-yl]pyrazolo[1,5-a]pyridin-5-yl]-4-methoxy-thiazole-5-carboxylic acid], the IC50 is 0.01 to 10 nM in assay [1] and more than 5000 nM in assay [2].

As for `COc1nn(-c2ccn3ncc(-c4c(C)nn(C(F)F)c4C)c3c2)cc1C(=O)O` [Cpd 71, 1-[3-[1-(difluoromethyl)-3,5-dimethyl-pyrazol-4-yl]pyrazolo[1,5-a]pyridin-5-yl]-3-methoxy-pyrazole-4-carboxylic acid], the figures for the IC50 in assay [1] and in assay [2] were 0.01 to 10 nM and more than 5000 nM, respectively.

For `Cc1c(-c2cnn3ccc(-n4cc(C(=O)O)cn4)cc23)c(C(F)(F)F)nn1C(C)C` [Cpd 76, 1-[3-[1-isopropyl-5-methyl-3-(trifluoromethyl)pyrazol-4-yl]pyrazolo[1,5-a]pyridin-5-yl]pyrazole-4-carboxylic acid], the results for the half-inhibitory concentration (IC50) in assay [1] and in assay [2] were 0.01 to 10 nM and 1000 to 5000 nM, respectively.

For `Cc1c(-c2cnn3ccc(-n4cc(C(=O)O)cn4)cc23)c(C(F)(F)F)nn1C` [Cpd 67, 1-[3-[1,5-dimethyl-3-(trifluoromethyl)pyrazol-4-yl]pyrazolo[1,5-a]pyridin-5-yl]pyrazole-4-carboxylic acid], the IC50 in assay [1] fell in the range of 0.01 to 10 nM; in assay [2], 1000 to 5000 nM.

`COc1nn(-c2ccn3ncc(-c4c(C)nn(C(C)C)c4C)c3c2)cc1C(=O)O` [Cpd 66, 1-[3-(1-isopropyl-3,5-dimethyl-pyrazol-4-yl)pyrazolo[1,5-a]pyridin-5-yl]-3-methoxy-pyrazole-4-carboxylic acid]: the IC50 in assay [1] was 0.01 to 10 nM; in assay [2], more than 5000 nM.

As for `COc1nc(-c2ccn3ncc(-c4c(C(F)(F)F)nn(C)c4C)c3c2)sc1C(=O)O` [Cpd 89, 2-[3-[1,5-dimethyl-3-(trifluoromethyl)pyrazol-4-yl]pyrazolo[1,5-a]pyridin-5-yl]-4-methoxy-thiazole-5-carboxylic acid], the IC50 in assay [1] was in the range of 0.01 to 10 nM; in assay [2] it was 1000 to 5000 nM.

With `Cc1noc(C)c1-c1cnn2ccc(-c3nc(C(F)(F)F)c(C(=O)O)o3)cc12` [Cpd 36, 2-[3-(3,5-dimethylisoxazol-4-yl)pyrazolo[1,5-a]pyridin-5-yl]-4-(trifluoromethyl) oxazole-5-carboxylic acid], the IC50 in assay [3] and in assay [1] was 100 to 500 nM in each case.

Take `Cc1noc(C)c1-c1cnn2ccc(-c3cc(C(=O)O)c(C4CCOCC4)o3)cc12` [Cpd 44, 5-[3-(3,5-dimethylisoxazol-4-yl)pyrazolo[1,5-a]pyridin-5-yl]-2-tetrahydropyran-4-yl-furan-3-carboxylic acid]: the IC50 in assay [3] and in assay [1] was 0.01 to 10 nM in each case.

Regarding `CCOc1nc(-c2ccn3ncc(-c4c(C)noc4C)c3c2)sc1C(=O)O` [Cpd 17, 2-[3-(3,5-dimethylisoxazol-4-yl)pyrazolo[1,5-a]pyridin-5-yl]-4-ethoxy-thiazole-5-carboxylic acid], the IC50 in assay [3] and in assay [1] was 0.01 to 10 nM in each case.

What is called IC50 is the concentration at which inhibition is half-maximal.
